Experimental data from ChEMBL document CHEMBL1148084, “Novel naphthoquinones from Conospermum incurvum” (J Nat Prod, 1994).
Active and inactive are the calls of the source. The calls are words filed in the database; no cut-off is given here.

The molecules below were run on Human immunodeficiency virus 1 (assay: Antiviral activity against HIV1 in human cells by XTT assay).
Format: functional, organism-based

Compound	Activity
CC(C)=CCC/C(C)=C/Cc1c(O)ccc2c1C(=O)C(O)=C(C)C2=O	inactive
CC(C)=CCC[C@]1(C)C=Cc2c(ccc3c2C(=O)C(O)=C(C)C3=O)O1	inactive
COc1cc2c(cc1O)C(=O)C(C)=C(C)C2=O	inactive
COC1=C(C)C(=O)c2ccc3c(c2C1=O)C=C[C@@](C)(CCC=C(C)C)O3	inactive
CC1=C(O)C(=O)c2c(ccc3c2C=C[C@@](C)(CCCC(C)(C)O)O3)C1=O	inactive
COC1=C(C)C(=O)c2ccc3c(c2C1=O)C=C[C@@](C)(CCCC(C)(C)O)O3	inactive
